Test system: metastatic castration-resistant prostate cancer (mCRPC) patients previously treated with docetaxel and who failed a prior androgen signaling targeted inhibitor
Assay: Randomized open-label clinical study, cabazitaxel vs abiraterone acetate or enzalutamide: imaging-based PFS, OS, PFS, PSA and tumor response
Type: in vivo, human
Conditions: for Deaths: at cut-off date; for rPFS, HR: cabazitaxel vs abiraterone or enzalutamide
From the text: Imaging-based progression-free survival (rPFS): defined as the time from randomization until the occurrence of one of the following events: objective tumor progression (Response Evaluation Criteria in Solid Tumors, version 1.1), progression of bone lesions (Prostate Cancer Working Group 2) or death due to any cause.
Overall survival (OS): defined as the time from the date of randomization to the date of death due to any cause.
Progression-free survival (PFS) defined as the time from randomization until the occurrence of objective tumor progression (using Response Evaluation Criteria in Solid Tumors, version 1.1), or progression of bone lesions (using Prostate Cancer Working Group 2 criteria), or symptomatic progression (defined as the development of urinary or bowel symptoms related to prostate cancer or requiring a change of anticancer therapy), or pain progression, or death due to any cause.
PSA response: defined as a decline of serum PSA from baseline of ≥50% with confirmation from a second PSA value measured at least 3 weeks apart. Best PSA response was defined using the Prostate Cancer Working Group criteria 2 definition.
Tumor response (TR): was measured using Response Evaluation Criteria in Solid Tumors, version 1.1 in patients with measurable disease.
A clinical study was performed wherein patients received cabazitaxel versus an Androgen Receptor (AR)-targeted agent (abiraterone acetate or enzalutamide) in metastatic castration-resistant prostate cancer (mCRPC) patients previously treated with docetaxel and who failed a prior androgen signaling pathway inhibitor within 12 months.
For patients in Arm A, cabazitaxel 25 mg/m^2 was administered intravenously over 1 hour every 3 weeks along with oral prednisone 10 mg given daily. Primary prophylactic granulocyte-colony stimulating factor (G-CSF) was required at each cycle for all patients in the cabazitaxel arm
For patients in Arm B, abiraterone acetate was administered orally at 1000 mg once daily along with oral prednisone 5 mg given twice daily or enzalutamide was administered orally at 160 mg once daily continuously. Abiraterone acetate was administered to patients who had received enzalutamide prior to study entry. Enzalutamide was administered to patients who received prior abiraterone acetate.
Each patient was treated until imaging-based disease progression, unacceptable toxicity, or patient's refusal of further study treatment. All patients were followed when on study treatment and after completion of study treatment during follow-up period until death, the study cut-off date, or withdrawal of patients' consent whichever came first.
Eligible patients were randomized to receive either cabazitaxel or an AR pathway inhibitor (abiraterone acetate or enzalutamide; dependent on the use of a previous androgen signaling targeted inhibitor) in a 1:1 ratio. Stratification criteria were Eastern Cooperative Oncology Group performance status, a 5-point scale where higher numbers indicate greater disability (0-1 vs. 2), and time to disease progression (≤6 months vs. >6-12 months) and timing (before vs. after docetaxel) with previous alternative AR pathway inhibitors.
Cabazitaxel 25 mg/m^2, was administered intravenously over 1 hour every 3 weeks with oral prednisone 10 mg daily. Premedication included an antihistamine, glucocorticoid (dexamethasone 8 mg or equivalent), and histamine 2 receptor antagonist. Antiemetic prophylaxis was administered at physician's discretion. Primary prophylactic granulocyte-colony stimulating factor was required during each cycle of cabazitaxel. Patients received either abiraterone acetate (1000 mg orally once daily and oral prednisone 5 mg twice daily) or enzalutamide (160 mg orally once daily) continuously. A treatment cycle was 3 weeks in both arms. Abiraterone acetate was given to patients who previously received enzalutamide before study entry. Enzalutamide was given to patients who previously received abiraterone acetate. […]

[1] = cabazitaxel vs androgen signaling targeted inhibitor

Question: What does the source list for CO[C@H]1C(=O)[C@]2(C)[C@@H](OC)C[C@H]3OC[C@@]3(OC(C)=O)[C@H]2[C@H](OC(=O)c2ccccc2)[C@]2(O)C[C@H](OC(=O)[C@H](O)[C@@H](NC(=O)OC(C)(C)C)c3ccccc3)C(C)=C1C2(C)C [Cabazitaxel, 4α-acetoxy-2α-benzoyloxy-5β,20-epoxy-1p-hydroxy-7β,10β-dimethoxy-9-oxo-11-taxen-13α-yl (2R,3S)-3-tert-butoxycarbonylamino-2-hydroxy-3-phenylpropionate]?
Answer: Deaths: 54.3%; Deaths (number): 70; Radiographic progression-free survival, hazard ratio, post hoc (cabazitaxel vs abiraterone acetate): 0.44; Overall survival, HR in multivariate analysis (cabazitaxel vs abiraterone/enzalutamide, in presence of low hemoglobin, high baseline NLR, high PSA): 0.63; Imaging-based progression-free survival, hazard ratio [1]: 0.54; Overall survival, hazard ratio [1]: 0.64; Progression-free survival, hazard ratio [1]: 0.52; Radiographic progression-free survival, hazard ratio, post hoc (cabazitaxel vs enzalutamide): 0.57; Reduction of the risk of death from any cause (compared with abiraterone acetate or enzalutamide, all patients): 36%; Confirmed PSA reduction ≥50% from baseline (evaluable patients): (35.7) %; Confirmed PSA reduction ≥50% from baseline (evaluable patients, listed as cabazitaxel): 35.7%; Radiographic progression-free survival, treatment effect hazard ratio, multivariate (fixed model MV-1): 0.54; Overall survival, median (from randomization): 13.6 months; Median OS from time of 1st LET (human, in vivo): 36.4 months; Median OS from time of 2nd LET (human, in vivo): 24.2 months; Median OS from time of 3rd LET (human, in vivo): 13.6 months; Median OS from time of mCRPC diagnosis (human, in vivo): 40.9 months; Median OS from time of metastatic disease diagnosis (human, in vivo): 54.7 months; Progression-free survival, median (human, in vivo): 4.4 months; Treatment discontinuation for disease progression (human, in vivo): 43.7%; Imaging-based progression-free survival, median (intention-to-treat population): 8.0 months; Overall response rate (measurable disease): 36.5%; Tumor response, complete (measurable disease): 0 n; Tumor response, progressive disease (measurable disease): 15 n; Confirmed PSA reduction ≥50% from baseline (number of patients, evaluable 115 and 111): 41; rPFS, HR (patients 70 years or older): 0.58; rPFS, HR (patients aged <70 years): 0.47; Radiographic progression-free survival, treatment effect hazard ratio, multivariate (stepwise model MV-2): 0.50; Radiographic progression-free survival, treatment effect hazard ratio, multivariate (stepwise model MV-3): 0.52; Reduction in the risk of death (vs abiraterone or enzalutamide, both in patients ≥70 and <70 years): 34%
